Laboratory results reported in US20100305093A1, “Inhibitors of mTOR and Methods of Making and Using” (EXELIXIS, INC., priority 2009, published 2010).
pIC50: −log10 of the molar value. Like-named read-outs stand apart in the source and are kept apart here.

Biological target: mTOR/GbL/Raptor (mTORC1) (Homo sapiens, UniProt P42345)
Experiment: mTOR/GbL/Raptor (mTORC1) ELISA assay, phosphorylation of 4E-BP1
Type: biochemical
Details: 0.2 nM mTORC1, 10 μM ATP, 50 nM NHis-tagged 4E-BP1
Protocol: mTOR/GbL/Raptor (mTORC1) ELISA Assay
The measurement of mTORC1 enzyme activity was performed in an ELISA assay format following the phosphorylation of 4E-BP1 protein. All experiments were performed in the 384-well format. Generally, 0.5 μL DMSO containing varying concentrations of the test compound was mixed with 15 μL enzyme solution. Kinase reactions were initiated with the addition of 15 μL of substrates-containing solution. The assay conditions were as follows; 0.2 nM mTORC1, 10 μM ATP and 50 nM NHis-tagged 4E-BP1 in 20 mM Hepes, pH 7.2, 1 mM DTT, 50 mM NaCl, 10 mM MnCl2, 0.02 mg/mL BSA, 0.01% CHAPS, 50 mM β-glycerophosphate. Following an incubation of 120 minutes at ambient temperature, 20 μL of the reaction volume was transferred to a Ni-Chelate-coated 384-well plate. The binding step of the 4E-BP1 protein proceeded for 60 minutes, followed by washing 4 times each with 50 μL of Tris-buffered saline solution (TBS). Anti-phospho-4E-BP1 rabbit-IgG (20 μL, 1:5000) in 5% BSA-TBST (0.2% Tween-20 in TBS) was added and further incubated for 60 minutes. Incubation with a secondary HRP-tagged anti-IgG was similarly performed after washing off the primary antibody (4 washes of 50 μL). Following the final wash step with TBST, 20 μL of SuperSignal ELISA Femto (Pierce Biotechnology) was added and the luminescence measured using an EnVision plate reader.

[1] = read-out: Activity in mTOR/GbL/Raptor ELISA Assay
[2] = read-out: activity in mTOR/GbL/Raptor (mTORC1) ELISA assay, activity bands by Table 1 compound number

SMILES	pIC50 [1]	pIC50 [2]
COc1ccc(OC)c(S(=O)(=O)c2ccc(C(=O)N3CCOc4ccc(-c5ccc6nc(C)[nH]c6c5)cc4C3)cc2)c1 [4-[(4-{[2,5-bis(methyloxy)phenyl]sulfonyl}phenyl)carbonyl]-7-(2-methyl-1H-benzimidazol-6-yl)-2,3,4,5-tetrahydro-1,4-benzoxazepine]	8.49	
CCS(=O)(=O)c1ccc(C(=O)N2CCOc3ccc(-c4ccc(N)nc4)cc3C2)c(C)c1F [Example 566, 5-(4-{[4-(ethylsulfonyl)-3-fluoro-2-methylphenyl]carbonyl}-2,3,4,5-tetrahydro-1,4-benzoxazepin-7-yl)pyridin-2-amine]		≥ 8.00
CCc1c(C(=O)N2CCOc3ccc(-c4ccc(C(=O)NC)c(F)c4)cc3C2)ccc(S(C)(=O)=O)c1F [4-(4-{[2-ethyl-3-fluoro-4-(methylsulfonyl)phenyl]carbonyl}-2,3,4,5-tetrahydro-1,4-benzoxazepin-7-yl)-2-fluoro-N-methylbenzamide]	7.92	
CCc1c(C(=O)N2CCOc3ccc(-c4ccc(C(=O)NCC5CNC5)cc4)cc3C2)ccc(S(C)(=O)=O)c1F [N-(azetidin-3-ylmethyl)-4-(4-{[2-ethyl-3-fluoro-4-(methylsulfonyl)phenyl]carbonyl}-2,3,4,5-tetrahydro-1,4-benzoxazepin-7-yl)benzamide]	8.00	
COc1ccc(-c2ccc3c(c2)CN(C(=O)c2ccc(C(=O)C(F)(F)F)cc2)CCO3)cn1 [Example 887, 2,2,2-trifluoro-1-[4-({7-[6-(methyloxy)pyridin-3-yl]-2,3-dihydro-1,4-benzoxazepin-4(5H)-yl}carbonyl)phenyl]ethanone]		7.00 to 8.00
CS(=O)(=O)c1ccc(C(=O)N2CCOc3ccc(-c4ccc(N)nc4)cc3C2)cc1 [Example 888, 5-(4-{[4-(methylsulfonyl)phenyl]carbonyl}-2,3,4,5-tetrahydro-1,4-benzoxazepin-7-yl)pyridin-2-amine]		7.00 to 8.00
Nc1ccc(-c2ccc3c(c2)CN(C(=O)c2ccc(S(N)(=O)=O)cc2)CCO3)cn1 [4-{[7-(6-aminopyridin-3-yl)-2,3-dihydro-1,4-benzoxazepin-4(5H)-yl]carbonyl}benzenesulfonamide]	8.18	
CC(C)NS(=O)(=O)c1ccc(C(=O)N2CCOc3ccc(-c4ccc5nc[nH]c5c4)cc3C2)c(Br)c1 [4-{[7-(1H-benzimidazol-6-yl)-2,3-dihydro-1,4-benzoxazepin-4(5H)-yl]carbonyl}-3-bromo-N-(1-methylethyl)benzenesulfonamide]	8.25	
CCc1c(C(=O)N2CCOc3ccc(-c4cnc(NCCNC)s4)cc3C2)ccc(S(C)(=O)=O)c1F [N-[5-(4-{[2-ethyl-3-fluoro-4-(methylsulfonyl)phenyl]carbonyl}-2,3,4,5-tetrahydro-1,4-benzoxazepin-7-yl)-1,3-thiazol-2-yl]-N′-methylethane-1,2-diamine]	8.28	
COc1ccc(-c2ccc3c(c2)CN(C(=O)c2ccc(S(N)(=O)=O)cc2)CCO3)cn1 [Example 885, 4-({7-[6-(methyloxy)pyridin-3-yl]-2,3-dihydro-1,4-benzoxazepin-4(5H)-yl}carbonyl)benzenesulfonamide]		7.00 to 8.00
COc1ccc(-c2ccc3c(c2)CN(C(=O)c2ccc(S(C)(=O)=O)cc2)CCO3)cn1 [Example 886, 7-[6-(methyloxy)pyridin-3-yl]-4-{[4-(methylsulfonyl)phenyl]carbonyl}-2,3,4,5-tetrahydro-1,4-benzoxazepine]		6.30 to 7.00
Cc1nc2ccc(-c3ccc4c(c3)CN(C(=O)c3ccc(S(=O)(=O)N5CCN(C)CC5)cc3)CCO4)cc2[nH]1 [7-(2-methyl-1H-benzimidazol-6-yl)-4-({4-[(4-methylpiperazin-1-yl)sulfonyl]phenyl}carbonyl)-2,3,4,5-tetrahydro-1,4-benzoxazepine]	8.07	
CCn1c(C(=O)N2CCOc3ccc(-c4ccc5nc(C)[nH]c5c4)cc3C2)c(Cl)c2ccccc21 [4-[(3-chloro-1-ethyl-1H-indol-2-yl)carbonyl]-7-(2-methyl-1H-benzimidazol-6-yl)-2,3,4,5-tetrahydro-1,4-benzoxazepine]	8.02	
Cc1nc2ccc(-c3ccc4c(c3)CN(C(=O)c3cc(S(=O)(=O)N5CCCC5)cn3C)CCO4)cc2[nH]1 [7-(2-methyl-1H-benzimidazol-6-yl)-4-{[1-methyl-4-(pyrrolidin-1-ylsulfonyl)-1H-pyrrol-2-yl]carbonyl}-2,3,4,5-tetrahydro-1,4-benzoxazepine]	8.15	
O=C(c1ccc(C(O)(O)C(F)(F)F)cc1)N1CCOc2ccc(-c3ccc(-c4ncc[nH]4)cc3)cc2C1 [2,2,2-trifluoro-1-[4-({7-[4-(1H-imidazol-2-yl)phenyl]-2,3-dihydro-1,4-benzoxazepin-4(5H)-yl}carbonyl)phenyl]ethane-1,1-diol]	8.52	
Cc1nc2ccc(-c3ccc4c(c3)CN(C(=O)c3ccc5c(c3)CCS5(=O)=O)CCO4)cc2[nH]1 [4-[(1,1-dioxido-2,3-dihydro-1-benzothien-5-yl)carbonyl]-7-(2-methyl-1H-benzimidazol-6-yl)-2,3,4,5-tetrahydro-1,4-benzoxazepine]	8.32	
Cc1ccc(C(=O)N2CCOc3ccc(-c4ccc5nc[nH]c5c4)cc3C2)c(C)c1 [7-(1H-benzimidazol-6-yl)-4-[(2,4-dimethylphenyl)carbonyl]-2,3,4,5-tetrahydro-1,4-benzoxazepine]	8.19	
O=C(c1ccc(-c2csnn2)cc1)N1CCOc2ccc(-c3ccc4cn[nH]c4c3)cc2C1 [7-(1H-indazol-6-yl)-4-{[4-(1,2,3-thiadiazol-4-yl)phenyl]carbonyl}-2,3,4,5-tetrahydro-1,4-benzoxazepine]	8.20	
CCc1c(C(=O)N2CCOc3ccc(-c4ccc(-c5nc6ccc(C)cc6[nH]5)cc4)cc3C2)ccc(S(C)(=O)=O)c1F [4-{[2-ethyl-3-fluoro-4-(methylsulfonyl)phenyl]carbonyl}-7-[4-(6-methyl-1H-benzimidazol-2-yl)phenyl]-2,3,4,5-tetrahydro-1,4-benzoxazepine]	8.22	
Cc1nc2ccc(-c3ccc4c(c3)CN(C(=O)c3cc5nc(C)sc5n3C)CCO4)cc2[nH]1 [4-[(2,4-dimethyl-4H-pyrrolo[3,2-d][1,3]thiazol-5-yl)carbonyl]-7-(2-methyl-1H-benzimidazol-6-yl)-2,3,4,5-tetrahydro-1,4-benzoxazepine]	7.76	
CCc1c(C(=O)N2CCOc3ccc(-c4ccc(NC(=O)N(C)C)cc4)cc3C2)ccc(S(C)(=O)=O)c1F [3-[4-(4-{[2-ethyl-3-fluoro-4-(methylsulfonyl)phenyl]carbonyl}-2,3,4,5-tetrahydro-1,4-benzoxazepin-7-yl)phenyl]-1,1-dimethylurea]	7.84	
O=C(c1ccc(C(=O)C(F)(F)F)cc1)N1CCOc2ccc(-c3cccnc3)cc2C1 [Example 884, 2,2,2-trifluoro-1-{4-[(7-pyridin-3-yl-2,3-dihydro-1,4-benzoxazepin-4(5H)-yl)carbonyl]phenyl}ethanone]		7.00 to 8.00
